Reference: patent US20080234130A1, “Compositions providing tolerance to multiple herbicides and methods of use thereof” (priority 2005, published 2008)

Assays:
[1] = tested on: heterozygous GAT-HRA corn; test: Postemergence effect of ALS herbicides, glyphosate and glufosinate (fresh weight, visual injury); conditions: 200 g/ha (glyphosate 3472 g ae/ha, glufosinate ammonium 1870 g/ha), mean of four replications; for % Visual Injury Heterozygous GAT-HRA: 2 weeks after treatment, 0% no injury, 100% plant death; for Fresh Weight (g) Heterozygous GAT-HRA: applied two weeks after planting, fresh shoots 2 weeks after treatment, untreated 98.8 g
[2] = tested on: parent elite stiff stalk inbred corn; test: Preemergence effect of ALS herbicides (fresh weight, visual injury); conditions: 200 g/ha, mean of four replications; for % Visual Injury Patent elite stiff stalk inbred: 4 weeks after treatment, 0% no injury, 100% plant death; for Fresh Weight (g) patent elite stiff stalk inbred: fresh shoots 4 weeks after treatment, untreated 36.7 g
[3] = tested on: heterozygous GAT-HRA corn; test: as above; conditions: 200 g/ha, mean of four replications; for % Visual Injury Heterozygous GAT-HRA: 4 weeks after treatment, 0% no injury, 100% plant death; for Fresh Weight (g) Heterozygous GAT-HRA: fresh shoots 4 weeks after treatment, untreated 47.0 g
[4] = tested on: parent elite stiff stalk inbred corn; test: Postemergence effect of ALS herbicides, glyphosate and glufosinate (fresh weight, visual injury); conditions: 200 g/ha (glyphosate 3472 g ae/ha, glufosinate ammonium 1870 g/ha), mean of four replications; for % Visual Injury Parent elite stiff stalk inbred: 2 weeks after treatment, 0% no injury, 100% plant death; for Fresh Weight (g) Parent elite stiff stalk inbred: applied two weeks after planting, fresh shoots 2 weeks after treatment, untreated 76.4 g

Molecule	% Visual Injury Heterozygous GAT-HRA [1] [%]	% Visual Injury Patent elite stiff stalk inbred [2] [%]	% Visual Injury Heterozygous GAT-HRA [3] [%]	% Visual Injury Parent elite stiff stalk inbred [4] [%]	Fresh Weight (g) Heterozygous GAT-HRA [1] [g]	Fresh Weight (g) patent elite stiff stalk inbred [2] [g]	Fresh Weight (g) Heterozygous GAT-HRA [3] [g]	Fresh Weight (g) Parent elite stiff stalk inbred [4] [g]
COc1cc(OC)nc(NC(=O)NS(=O)(=O)c2cc(NC=O)ccc2C(=O)N(C)C)n1 [Foramsulfuron, 2-[[[[(4,6-dimethoxy-2-pyrimidinyl)amino]carbonyl]amino]sulfonyl]-4-(formylamino)-N,N-dimethylbenzamide]	8	5	7	28				
COc1cc(OC)nc(NC(=O)NS(=O)(=O)c2ncccc2C(=O)N(C)C)n1 [Nicosulfuron, 2-[[[[(4,6-dimethoxy-2-pyrimidinyl)amino]carbonyl]amino]sulfonyl]-N,N-dimethyl-3-pyridinecarboxamide]	0	43	0	24	94.7	33.6	50.3	62.7
Imazamethabenz-methyl	16	61	15	11	95.0	36.2	48.5	66.9
COc1nc(C)nc(NC(=O)NS(=O)(=O)c2ccccc2CCC(F)(F)F)n1 [Prosulfuron, N-[[(4-methoxy-6-methyl-1,3,5-triazin-2-yl)amino]carbonyl]-2-(3,3,3-trifluoropropyl)benzenesulfonamide]	29	68	9	25				
CCc1cnc(C2=NC(C)(C(C)C)C(=O)N2)c(C(=O)O)c1 (centres unmarked) [Imazethapyr]	9	69	20	97				
COc1cc(OC)nc(NC(=O)NS(=O)(=O)c2ncccc2OCC(F)(F)F)n1 [Trifloxysulfuron Na^+, N-[[(4,6-dimethoxy-2-pyrimidinyl)amino]-carbonyl]-3-(2,2,2-trifluoroethoxy)-2-pyridinesulfonamide]	29	100	0	100	86.6	0.0	50.8	1.0
Cc1ccn2nc(S(=O)(=O)Nc3c(F)cccc3F)nc2n1 [Flumetsulam, N-(2,6-difluorophenyl)-5-methyl[1,2,4]triazolo[1,5-a]pyrimidine-2-sulfonamide]	3	13	13	85				
COc1nn(C(=O)NS(=O)(=O)c2ccccc2OC(F)(F)F)c(=O)n1C [Flucarbazone Na^+, 4,5-dihydro-3-methoxy-4-methyl-5-oxo-N-[[2-(trifluoromethoxy)phenyl]sulfonyl]-1H-1,2,4-triazole-1-carboxamide]	14	100	40	100				
CO/N=C(/C)c1cccc(Oc2nc(OC)cc(OC)n2)c1C(=O)OC [Pyriminobac-methyl]	4	83	20	93	95.2	30.4	39.9	7.6
COC(=O)c1c(Cl)nn(C)c1S(=O)(=O)NC(=O)Nc1nc(OC)cc(OC)n1 [Halosulfuron-methyl, methyl 3-chloro-5-[[[[(4,6-dimethoxy-2-pyrimidinyl)amino]-carbonyl]amino]sulfonyl]-1-methyl-1H-pyrazole-4-carboxylate]	8	30	15	14				
CCOc1nc(NC)nc(NC(=O)NS(=O)(=O)c2ccccc2C(=O)OC)n1 [Ethametsulfuron-methyl, methyl 2-[[[[[4-ethoxy-6-(methylamino)-1,3,5-triazin-2-yl]amino]carbonyl]amino]sulfonyl]benzoate]	6	100	88	96	98.0	1.6	50.1	5.6
CCOc1ccccc1OS(=O)(=O)NC(=O)Nc1nc(OC)cc(OC)n1 [Ethoxysulfuron, 2-ethoxyphenyl[[(4,6-dimethoxy-2-pyrimidinyl)amino]carbonyl]sulfamate]	15	63	25	88				
CC(C)C1(C)N=C(c2nc3ccccc3cc2C(=O)O)NC1=O (centres unmarked) [Imazaquin]	2	99	28	100	113.3	1.5	45.4	4.4
COCc1cnc(C2=NC(C)(C(C)C)C(=O)N2)c(C(=O)O)c1 (centres unmarked) [Imazamox]	4	99	13	100	90.9	0.8	47.5	2.2
CCS(=O)(=O)c1nc2ccccn2c1S(=O)(=O)NC(=O)Nc1nc(OC)cc(OC)n1 [Sulfosulfuron, N-[[(4,6-dimethoxy-2-pyrimidinyl)amino]carbonyl]-2-(ethylsulfonyl)imidazo[1,2-a]pyridine-3-sulfonamide]	3	100	18	97				
CP(=O)(O)CCC(N)C(=O)O (centres unmarked) [Glufosinate ammonium]	1			99	112.3			2.4
